≈ marks a conversion by molar mass, not a printed value. Where “and” joins values, the source holds several entries; their conditions need not be identical. Equal values may be shown once. Each block holds one molecule with its values, some of them ahead of it.
What was measured:
Assay in all cases: ≥ marks a high value that may be exact or a test limit, other limits are often not marked, values filed in µg/mL are converted to µM
[1] = system: Bacillus anthracis UM23-CL2
[2] = system: Burkholderia cepacia J2540
[3] = system: Escherichia coli
[4] = system: Candida albicans KCCM 11282
[5] = system: Edwardsiella tarda
[6] = system: Vibrio tapetis KCTC 12728
[7] = system: Miamiensis avidus
[8] = system: Streptococcus iniae
[9] = system: Saccharomyces cerevisiae KCCM 11293
[10] = system: Klebsiella pneumoniae ATCC 700603
[11] = system: Staphylococcus aureus ATCC 9144
[12] = system: Enterococcus faecalis ATCC 29212
[13] = system: Acinetobacter baumannii ATCC 19606
[14] = system: Staphylococcus aureus ATCC 33591
[15] = system: Pseudomonas aeruginosa ATCC 9027
[16] = system: Enterococcus faecium ATCC 700221
[17] = system: Klebsiella pneumoniae ATCC 13883
[18] = system: Staphylococcus aureus ATCC 12598
[19] = system: Staphylococcus epidermidis ATCC 12228
[20] = system: Klebsiella aerogenes ATCC 13048
[21] = system: Acinetobacter baumannii ATCC BAA-1605
[22] = system: Staphylococcus aureus ATCC 6538
[23] = system: Staphylococcus aureus ATCC 25923
[24] = system: Escherichia coli ATCC 8739
[25] = system: Trichophyton rubrum
[26] = system: Candida parapsilosis ATCC 22019
[27] = system: Trichophyton mentagrophytes
[28] = system: Escherichia coli ATCC 32218
[29] = system: Staphylococcus aureus ATCC 29213
[30] = system: Pseudomonas aeruginosa 1
[31] = system: Staphylococcus aureus
[32] = system: Enterococcus faecium ATCC 19434
[33] = system: Trichophyton rubrum KCTC 6345
[34] = system: Candida albicans ATCC 90028
[35] = system: Pseudomonas aeruginosa 2
[36] = system: Escherichia coli O157:H7 ATCC 43895
[37] = system: Trichosporon beigelii KCTC 7707
[38] = system: Pseudomonas aeruginosa ATCC 27853
[39] = system: Salmonella typhimurium ATCC 19430
[40] = system: Staphylococcus aureus P1374
[41] = system: Pseudomonas aeruginosa AB93066
[42] = system: Staphylococcus aureus AB94004
[43] = system: Staphylococcus aureus P1381
[44] = system: Escherichia coli ATCC 25922
[45] = system: Escherichia coli AB94012

Structure (SMILES): CC[C@H](C)[C@H](NC(=O)[C@H](CCCCN)NC(=O)[C@H](CCCCN)NC(=O)[C@H](Cc1ccccc1)NC(=O)[C@H](CC(C)C)NC(=O)[C@H](CCCCN)NC(=O)[C@H](Cc1c[nH]c2ccccc12)NC(=O)[C@@H](N)CCCCN)C(=O)N[C@@H](C)C(=O)N[C@@H](CCCCN)C(=O)N[C@@H](CCCCN)C(=O)N[C@@H](Cc1ccccc1)C(=O)N[C@@H](C)C(=O)N[C@@H](CCCCN)C(=O)N[C@@H](C)C(=O)N[C@@H](Cc1ccccc1)C(=O)N[C@H](C(=O)N[C@@H](C)C(=O)N[C@@H](CCC(=O)O)C(=O)N[C@H](C(=O)N[C@@H](CCSC)C(=O)O)[C@@H](C)CC)C(C)C [KWKLFKKIAKKFAKAFVAEIM]
MIC [1]: 24.7 µM and ≥ 49.5 µM
MIC [2]: 12.4 µM (≈ 31.3 µg/mL)

Structure (SMILES): CC(C)C[C@H](NC(=O)[C@H](C)N)C(=O)N[C@@H](CCCCN)C(=O)N[C@@H](Cc1ccc(O)cc1)C(=O)N[C@@H](CCCN=C(N)N)C(=O)N[C@@H](CC(C)C)C(=O)N[C@@H](Cc1ccccc1)C(=O)N[C@@H](CCCCN)C(=O)N[C@@H](CCCCN)C(=O)N[C@@H](CC(C)C)C(=O)N[C@@H](CCCCN)C(=O)N[C@@H](CCCCN)C(=O)N[C@@H](Cc1ccccc1)C(=O)O [ALKYRLFKKLKKF]
MIC [12]: 1.19 µM (≈ 2 µg/mL)
MIC [28]: ≥ 35.6 µM
MIC [29]: 0.594 µM (≈ 1 µg/mL)

Structure (SMILES): CC[C@H](C)[C@H](NC(=O)[C@H](CCCN=C(N)N)NC(=O)CNC(=O)[C@@H](NC(=O)[C@@H]1CCCN1C(=O)[C@H](Cc1ccccc1)NC(=O)[C@H](CCC(N)=O)NC(=O)[C@H](CC(C)C)NC(=O)CNC(=O)[C@H](C)N)C(C)C)C(=O)NCC(=O)N[C@@H](CCCN=C(N)N)C(=O)N[C@@H](CC(C)C)C(=O)N[C@@H](CC(C)C)C(=O)N[C@@H](CCCN=C(N)N)C(=O)N[C@@H](CCCCN)C(=O)O [AGLQFPVGRIGRLLRK]
MIC [30]: 6.3 µM (≈ 11.2 µg/mL)
MIC [31]: 12.5 µM (≈ 22.3 µg/mL)
MIC [23]: 25 µM (≈ 44.5 µg/mL)
MIC [32]: 12.5 µM (≈ 22.3 µg/mL)
MIC [33]: 6.3 µM (≈ 11.2 µg/mL)
MIC [34]: 6.3 µM (≈ 11.2 µg/mL)
MIC [26]: 12.5 µM (≈ 22.3 µg/mL)
MIC [35]: 12.5 µM (≈ 22.3 µg/mL)
MIC [36]: 6.3 µM (≈ 11.2 µg/mL)
MIC [37]: 6.3 µM (≈ 11.2 µg/mL)
MIC [38]: 12.5 µM (≈ 22.3 µg/mL)
MIC [39]: 12.5 µM (≈ 22.3 µg/mL)

The next lines start with the values.

MIC [3]: 45 µM (≈ 116 µg/mL)
MIC [4]: 22.5 µM (≈ 58 µg/mL)
MIC [5]: ≥ 90 µM
MIC [6]: 22.5 µM (≈ 58 µg/mL)
MIC [7]: 0.4 µM (≈ 1.03 µg/mL)
MIC [8]: ≥ 45 µM
MIC [9]: 11.2 µM (≈ 29 µg/mL)
Structure (SMILES): CC[C@H](C)[C@H](NC(=O)[C@H](C)NC(=O)[C@H](Cc1cnc[nH]1)NC(=O)CNC(=O)[C@@H](NC(=O)CNC(=O)[C@H](Cc1cnc[nH]1)NC(=O)[C@H](CC(C)C)NC(=O)[C@H](CC(C)C)NC(=O)[C@H](CCSC)NC(=O)CNC(=O)[C@H](CC(C)C)NC(=O)[C@@H](N)Cc1ccccc1)C(C)C)C(=O)N[C@@H](Cc1cnc[nH]1)C(=O)NCC(=O)N[C@@H](CC(C)C)C(=O)N[C@H](C(=O)N[C@@H](Cc1cnc[nH]1)C(=O)NCC(=O)N[C@@H](CCCCN)C(=O)N[C@@H](CCC(N)=O)C(=O)N[C@@H](CC(N)=O)C(=O)N[C@H](C(=O)N[C@@H](CCC(=O)O)C(=O)O)C(C)C)[C@@H](C)CC [FLGMLLHGVGHAIHGLIHGKQNVE]

MIC [10]: 163 µM (≈ 263 µg/mL)
MIC [11]: ≥ 163 µM
MIC [12]: ≥ 81.4 µM
MIC [13]: ≥ 163 µM
MIC [14]: ≥ 163 µM
MIC [15]: 40.7 µM (≈ 65.7 µg/mL)
MIC [16]: 10.2 µM (≈ 16.4 µg/mL)
MIC [17]: ≥ 163 µM
MIC [18]: ≥ 163 µM
MIC [19]: ≥ 163 µM
MIC [20]: ≥ 163 µM
MIC [21]: ≥ 163 µM
MIC [22]: 163 µM (≈ 263 µg/mL)
Structure (SMILES): CC[C@H](C)[C@H](NC(=O)[C@H](CCCN=C(N)N)NC(=O)[C@H](CCC(N)=O)NC(=O)[C@@H](NC(=O)[C@@H](NC(=O)[C@H](CCCN=C(N)N)NC(=O)[C@H](CCCCN)NC(C)=O)[C@@H](C)CC)C(C)C)C(=O)N[C@@H](CCCCN)C(=O)N[C@@H](CC(=O)O)C(=O)N[C@@H](Cc1ccccc1)C(=O)N[C@@H](CC(C)C)C(=O)N[C@@H](CCCN=C(N)N)C(N)=O [KRIVQRIKDFLR]

MIC [23]: > 115 µM
MIC [24]: 30 µM (≈ 66.4 µg/mL)
MIC [25]: ≥ 115 µM
MIC [26]: ≥ 115 µM
MIC [27]: ≥ 115 µM
Structure (SMILES): CSCC[C@H](NC(=O)[C@H](CO)NC(=O)[C@H](C)NC(=O)[C@H](C)NC(=O)[C@H](C)NC(=O)[C@H](C)NC(=O)[C@H](C)NC(=O)[C@H](C)NC(=O)[C@H](C)NC(=O)[C@H](CC(N)=O)NC(=O)[C@H](C)NC(=O)[C@H](C)NC(=O)[C@@H](NC(=O)[C@H](CC(C)C)NC(=O)[C@H](C)NC(=O)[C@H](C)NC(=O)[C@H](C)NC(=O)[C@H](C)NC(=O)[C@H](C)NC(=O)[C@H](C)NC(=O)[C@H](CC(=O)O)NC(=O)[C@H](CO)NC(=O)[C@H](C)NC(=O)[C@@H](NC(=O)[C@@H](N)Cc1cnc[nH]1)[C@@H](C)O)[C@@H](C)O)C(=O)N[C@@H](C)C(=O)O [HTASDAAAAAALTAANAAAAAAASMA]

MIC [40]: 7.64 µM (≈ 12.5 µg/mL)
MIC [41]: 30.6 µM (≈ 50 µg/mL)
MIC [42]: 3.82 µM (≈ 6.25 µg/mL)
MIC [15]: 30.6 µM (≈ 50 µg/mL)
MIC [43]: 7.64 µM (≈ 12.5 µg/mL)
MIC [23]: 3.82 µM (≈ 6.25 µg/mL)
MIC [44]: 30.6 µM (≈ 50 µg/mL)
MIC [45]: 15.3 µM (≈ 25 µg/mL)
MIC [22]: 3.82 µM (≈ 6.25 µg/mL)
Structure (SMILES): CC[C@H](C)[C@H](NC(=O)[C@H](CO)NC(=O)[C@H](CCCCN)NC(=O)[C@@H](NC(=O)CNC(=O)[C@H](CCCCN)NC(=O)[C@H](Cc1c[nH]c2ccccc12)NC(=O)[C@H](CC(C)C)NC(=O)[C@H](CCCCN)NC(=O)CNC(=O)[C@H](CC(C)C)NC(=O)[C@@H](NC(=O)[C@@H](N)Cc1ccccc1)[C@@H](C)CC)C(C)C)C(=O)N[C@@H](Cc1ccccc1)C(N)=O [FILGKLWKGVKSIF]
